{
  "source": "patent US7122193B1",
  "about": "(priority 1994, dated 2006)",
  "key": {"I-A^d class II molecules": {"molecular_target": "I-A^d class II molecules (Mus musculus, UniProt P01921+P04228)", "sequence (P04228 24-256 limits assumed)": "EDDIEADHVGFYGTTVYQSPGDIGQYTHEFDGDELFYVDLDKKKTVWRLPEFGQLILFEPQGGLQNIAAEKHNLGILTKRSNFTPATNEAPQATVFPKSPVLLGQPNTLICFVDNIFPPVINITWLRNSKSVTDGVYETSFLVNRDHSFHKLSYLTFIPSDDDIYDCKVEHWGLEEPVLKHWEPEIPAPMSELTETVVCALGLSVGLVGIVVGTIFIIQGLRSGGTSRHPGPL", "sequence (P01921 28-265 limits assumed)": "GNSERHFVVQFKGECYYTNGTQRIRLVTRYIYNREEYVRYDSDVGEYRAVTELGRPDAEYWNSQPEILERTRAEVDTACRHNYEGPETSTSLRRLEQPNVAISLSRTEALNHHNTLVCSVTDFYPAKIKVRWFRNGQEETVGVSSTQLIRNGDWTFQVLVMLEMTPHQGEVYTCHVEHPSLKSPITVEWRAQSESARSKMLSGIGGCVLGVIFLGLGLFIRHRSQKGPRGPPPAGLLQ", "assay_type": "cell-based"}, "I-E^d class II molecules": {"molecular_target": "I-E^d class II molecules (Mus musculus, UniProt P01904+P01915)", "sequence (P01904 26-255 limits assumed)": "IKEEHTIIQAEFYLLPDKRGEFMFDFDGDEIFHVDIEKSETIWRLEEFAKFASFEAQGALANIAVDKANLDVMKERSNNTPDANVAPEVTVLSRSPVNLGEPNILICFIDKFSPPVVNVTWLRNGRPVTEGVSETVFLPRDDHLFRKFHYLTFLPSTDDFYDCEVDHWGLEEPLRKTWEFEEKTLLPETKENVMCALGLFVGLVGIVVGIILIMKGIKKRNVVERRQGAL", "sequence (P01915 27-264 limits assumed)": "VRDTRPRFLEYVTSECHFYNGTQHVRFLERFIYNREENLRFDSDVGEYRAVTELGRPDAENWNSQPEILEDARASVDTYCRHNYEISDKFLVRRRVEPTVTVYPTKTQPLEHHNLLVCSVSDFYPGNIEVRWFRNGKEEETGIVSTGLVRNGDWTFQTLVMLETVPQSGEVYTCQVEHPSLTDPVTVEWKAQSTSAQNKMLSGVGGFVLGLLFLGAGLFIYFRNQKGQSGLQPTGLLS", "assay_type": "cell-based"}},
  "data": [
    {"substance": "CH3CO-(D)Thr-(D)Asp-(D)Lys-(D)Tyr-(D)Thr-(D)Ile-(D)Lys-(D)Trp-(D)Val-(D)Ala-(D)Phe-(D)Leu-(D)Lys-NH2", "values": [
      {"measurement": "binding to I-A^d transfected fibroblasts, in words", "setting": "I-A^d class II molecules", "value": "Neither the L- nor the retro-inverso peptides bound"},
      {"measurement": "inhibition (of IL-2 production / binding of cI 12–26)", "setting": "I-E^d class II molecules", "value": "up to 56%"}
    ]}
  ]
}
